Our source for the IC50 values is patent US20250129027A1 (APOGEE PHARMACEUTICALS, INC., priority 2023, published 2025).

One experiment concerns the target human recombinant FAAH (Homo sapiens (Human), UniProt O00519). As to the kind of experiment: In vitro inhibition of FAAH activity (fluorescent inhibitor screening kit, AMC arachidonoyl amide). It counts as biochemical. As to conditions: human recombinant FAAH; read-out: Inhibition on FAAH activity (IC50). In outline: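 Fluorogenic kit assay: AMC arachidonoyl amide is cleaved by human recombinant FAAH, read at 340-360/450-465 nm. Percent inhibition versus non-treated control; IC50 values derived from multiple compound concentrations where tested.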

The next experiment addresses human recombinant MAGL (Homo sapiens (Human), UniProt Q99685). As to the kind of experiment: In vitro inhibition of MAGL activity (inhibitor screening kit, 4-nitrophenylacetate). Type of experiment: biochemical. As to conditions: human recombinant MAGL. The method, boiled down:
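Percent inhibition derived from absorbance (405-412 nm) of treated wells relative to untreated enzyme control. Human recombinant MAGL with 4-nitrophenylacetate substrate, whose cleavage yields yellow 4-nitrophenol.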

Chain of human recombinant FAAH (O00519 whole entry): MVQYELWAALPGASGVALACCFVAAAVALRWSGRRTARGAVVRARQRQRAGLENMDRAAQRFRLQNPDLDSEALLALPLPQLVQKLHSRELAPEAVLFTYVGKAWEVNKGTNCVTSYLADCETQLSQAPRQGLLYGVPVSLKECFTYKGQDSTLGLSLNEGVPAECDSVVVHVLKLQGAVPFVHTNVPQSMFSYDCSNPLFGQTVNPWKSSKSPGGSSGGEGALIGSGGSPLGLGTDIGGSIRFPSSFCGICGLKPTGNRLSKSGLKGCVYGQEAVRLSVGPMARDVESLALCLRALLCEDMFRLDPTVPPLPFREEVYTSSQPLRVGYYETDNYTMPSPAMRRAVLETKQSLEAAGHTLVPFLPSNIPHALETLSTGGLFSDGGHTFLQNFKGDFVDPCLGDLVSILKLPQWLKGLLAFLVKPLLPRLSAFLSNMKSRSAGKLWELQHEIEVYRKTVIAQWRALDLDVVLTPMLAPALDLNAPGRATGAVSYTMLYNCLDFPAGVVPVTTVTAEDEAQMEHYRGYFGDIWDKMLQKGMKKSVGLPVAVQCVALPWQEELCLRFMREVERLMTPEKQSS
Chain of human recombinant MAGL (Q99685 whole entry): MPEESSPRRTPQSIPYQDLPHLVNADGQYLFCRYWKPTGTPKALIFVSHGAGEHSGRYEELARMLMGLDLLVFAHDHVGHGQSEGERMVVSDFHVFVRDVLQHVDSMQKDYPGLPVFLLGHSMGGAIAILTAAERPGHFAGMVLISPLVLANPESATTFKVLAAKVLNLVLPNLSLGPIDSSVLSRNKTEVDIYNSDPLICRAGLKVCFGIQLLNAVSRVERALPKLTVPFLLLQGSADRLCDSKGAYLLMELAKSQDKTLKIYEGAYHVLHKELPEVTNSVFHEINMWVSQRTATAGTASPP

As a reminder, the IC50 is the point on the concentration scale where inhibition reaches its midpoint. As for `O=C(NC1CCCC1)Oc1cccc(-c2cncc(-c3ncco3)c2)c1` [Example 75, 3-(5-(oxazol-2-yl)pyridin-3-yl)phenyl cyclopentylcarbamate], the figures for the IC50 at human recombinant FAAH and on human recombinant MAGL were 10 to 1000 nM and greater than 10000 nM, respectively.
Turning to `O=C(NC1CCCCCC1)Oc1cccc(-c2cncc(-c3nnn[nH]3)c2)c1` [Example 243, 3-(5-(1H-tetrazol-5-yl)pyridin-3-yl)phenyl cycloheptylcarbamate], the figures for the half-maximal inhibitory concentration (IC50) at human recombinant FAAH and on human recombinant MAGL were greater than 1000 nM and greater than 10000 nM, respectively.
The matching figures for `O=C(NC1CCCC1)Oc1cccc(-c2cncc(C(F)(F)F)c2)c1` [Example 32, 3-(5-(trifluoromethyl)pyridin-3-yl)phenyl cyclopentylcarbamate]: 10 to 100 nM and greater than 10000 nM.
Take `CCCCN(CCCC)C(=O)Oc1cccc(-c2cncc(-c3nnco3)c2)c1` [Example 155, 3-(5-(1,3,4-oxadiazol-2-yl)pyridin-3-yl)phenyl dibutylcarbamate]: the IC50 was greater than 1000 nM at human recombinant FAAH and roughly 10000 nM on human recombinant MAGL.
With `O=C(NC1CCCC1)Oc1cccc(-c2cncc(-c3nnn[nH]3)c2)c1` [Example 241, 3-(5-(1H-tetrazol-5-yl)pyridin-3-yl)phenyl cyclopentylcarbamate], the IC50 on human recombinant FAAH is greater than 1000 nM; on human recombinant MAGL, greater than 10000 nM.
Regarding `O=C(NCc1ccccc1)Oc1cccc(-c2cncc(-c3nccs3)c2)c1` [Example 117, 3-(5-(thiazol-2-yl)pyridin-3-yl)phenyl benzylcarbamate], the IC50 on human recombinant FAAH is 100 to 1000 nM; on human recombinant MAGL it was greater than 10000 nM.
Take `CCCCCCCCNC(=O)Oc1cc(O)cc(-c2cncc(-c3nnco3)c2)c1` [Example 160, 3-(5-(1,3,4-oxadiazol-2-yl)pyridin-3-yl)-5-hydroxyphenyl octylcarbamate]: the results for the IC50 at human recombinant FAAH and at human recombinant MAGL were 1 to 10 nM and 1000 to 10000 nM, respectively.
Regarding `O=C(NCc1ccccc1)Oc1cccc(-c2cncc(-c3ccc[nH]3)c2)c1` [Example 37, 3-(5-(1H-pyrrol-2-yl)pyridin-3-yl)phenyl benzylcarbamate], the IC50 was roughly 1000 nM at human recombinant FAAH and greater than 10000 nM on human recombinant MAGL.
The matching figures for `O=C(NC1CCCCC1)Oc1cccc(-c2cncc(-c3nnco3)c2)c1` [Example 139, 3-(5-(1,3,4-oxadiazol-2-yl)pyridin-3-yl)phenyl cyclohexylcarbamate]: 10 to 100 nM and greater than 50000 nM.
On to `COc1ccc(OC(=O)NCC2CCCCC2)cc1-c1cncc(-c2nncs2)c1` [Example 214, 3-(5-(1,3,4-thiadiazol-2-yl)pyridin-3-yl)-4-methoxyphenyl (cyclohexylmethyl)carbamate], for which the IC50 at human recombinant FAAH is 10 to 100 nM; at human recombinant MAGL, greater than 10000 nM.
For the compound `COc1ccc(OC(=O)NCc2ccccc2)cc1-c1cncc(-c2cccs2)c1` [Example 67, 4-methoxy-3-(5-(thiophen-2-yl)pyridin-3-yl)phenyl benzylcarbamate], the results for the IC50 at human recombinant FAAH and at human recombinant MAGL were greater than 1000 nM and greater than 10000 nM, respectively.
The matching figures for `CC1CCC(NC(=O)Oc2ccc(OC(F)(F)F)c(-c3cncc(-c4nnco4)c3)c2)CC1` (stereo not drawn) [Example 201]: 100 to 1000 nM and greater than 1000 nM.
As for `Cc1ccc(-c2cncc(-c3ncco3)c2)cc1OC(=O)NC1CCCCCC1` [Example 97, 2-methyl-5-(5-(oxazol-2-yl)pyridin-3-yl)phenyl cycloheptylcarbamate], the IC50 at human recombinant FAAH and at human recombinant MAGL was greater than 1000 nM in each case.
For the compound `O=C(NC1CCCC1)Oc1ccc(F)c(-c2cncc(-c3ncco3)c2)c1` [Example 85, 4-fluoro-3-(5-(oxazol-2-yl)pyridin-3-yl)phenyl cyclopentylcarbamate], the results for the IC50 on human recombinant FAAH and on human recombinant MAGL were 10 to 100 nM and greater than 10000 nM, respectively.
`O=C(NCC1CCCCC1)Oc1cccc(-c2cncc(-c3nnco3)c2)c1` [Example 134, 3-(5-(1,3,4-oxadiazol-2-yl)pyridin-3-yl)phenyl (cyclohexylmethyl)carbamate]: the half-inhibitory concentration (IC50) at human recombinant FAAH is 10 to 20 nM; on human recombinant MAGL, greater than 10000 nM.
Turning to `O=C(Oc1cccc(-c2cncc(-c3nnco3)c2)c1)N1C2CCCC1CC2` [Example 150, 3-(5-(1,3,4-oxadiazol-2-yl)pyridin-3-yl)phenyl 8-azabicyclo[3.2.1]octane-8-carboxylate], the half-inhibitory concentration (IC50) on human recombinant FAAH was greater than 1000 nM; on human recombinant MAGL it was greater than 10000 nM.
Consider `O=C(NCC1CCCCC1)Oc1ccc(O)c(-c2cncc(-c3ncn[nH]3)c2)c1` [Example 227, 3-(5-(1H-1,2,4-triazol-5-yl)pyridin-3-yl)-4-hydroxyphenyl (cyclohexyl methyl) carbamate], for which the IC50 is 100 to 1000 nM on human recombinant FAAH and greater than 10000 nM on human recombinant MAGL.
With `O=C(Oc1cccc(-c2cncc(-c3nnco3)c2)c1)N1CC2CCCC2C1` (stereo not drawn) [Example 149, 3-(5-(1,3,4-oxadiazol-2-yl)pyridin-3-yl)phenyl hexahydrocyclopenta[c]pyrrole-2(1H)-carboxylate], the values for the IC50 at human recombinant FAAH and on human recombinant MAGL were 10 to 100 nM and 1000 to 10000 nM, respectively.
For `CCCCCCCCNC(=O)Oc1ccc(OC(F)(F)F)c(-c2cncc(-c3nnco3)c2)c1` [Example 199, 3-(5-(1,3,4-oxadiazol-2-yl)pyridin-3-yl)-4-(trifluoromethoxy)phenyl octylcarbamate], the results for the IC50 on human recombinant FAAH and at human recombinant MAGL were 10 to 100 nM and 1000 to 10000 nM, respectively.
For `COc1ccc(OC(=O)NC2CCCCCC2)cc1-c1cncc(-c2ccco2)c1` [Example 58, 3-(5-(furan-2-yl)pyridin-3-yl)-4-methoxyphenyl cycloheptylcarbamate] the same measures were 100 to 1000 nM and greater than 10000 nM.
In the case of `COC(=O)c1cncc(-c2cccc(OC(=O)NC3CCCC3)c2)c1` [Example 11, methyl 5-(3-((cyclopentylcarbamoyl)oxy)phenyl)nicotinate], the IC50 is 10 to 100 nM at human recombinant FAAH and greater than 10000 nM at human recombinant MAGL.
With `CCCCCCCCNC(=O)Oc1ccc(OC)c(-c2cncc(-c3ccco3)c2)c1` [Example 53, 3-(5-(furan-2-yl)pyridin-3-yl)-4-methoxyphenyl octylcarbamate], the IC50 on human recombinant FAAH is 10 to 100 nM; on human recombinant MAGL it was roughly 10000 nM.
The matching figures for `CSc1ccc(OC(=O)NC2CCCC2)cc1-c1cncc(-c2nnco2)c1` [Example 189, 3-(5-(1,3,4-oxadiazol-2-yl)pyridin-3-yl)-4-(methylthio)phenyl cyclopentylcarbamate]: 100 to 1000 nM and greater than 10000 nM.
For `O=C(NC1CCCC1)Oc1cccc(-c2cncc(-c3ccno3)c2)c1` [Example 106, 3-(5-(isoxazol-5-yl)pyridin-3-yl)phenyl cyclopentylcarbamate] the same measures were 10 to 100 nM and greater than 10000 nM.
`O=C(NC1CCCC1)Oc1ccc(O)c(-c2cncc(-c3ncn[nH]3)c2)c1` [Example 229, 3-(5-(1H-1,2,4-triazol-5-yl)pyridin-3-yl)-4-hydroxyphenyl cyclopentylcarbamate]: the IC50 on human recombinant FAAH was 10 to 100 nM; at human recombinant MAGL it was greater than 10000 nM.
Consider `CCCCCCCCNC(=O)Oc1cccc(-c2cncc(-c3cccs3)c2)c1` [Example 59, 3-(5-(thiophen-2-yl)pyridin-3-yl)phenyl octylcarbamate], for which the values for the IC50 at human recombinant FAAH and on human recombinant MAGL were 10 to 100 nM and greater than 10000 nM, respectively.
As to `O=C(NC1CCCCC1)Oc1ccc(OC(F)(F)F)c(-c2cncc(-c3nnco3)c2)c1` [Example 200, 3-(5-(1,3,4-oxadiazol-2-yl)pyridin-3-yl)-4-(trifluoromethoxy)phenyl cyclohexylcarbamate], the IC50 at human recombinant FAAH was 100 to 1000 nM; on human recombinant MAGL, greater than 10000 nM.
